Measurements taken from PubChem BioAssay (NCI).
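Cultured in 96-well plates, cells were exposed to test compound for 48 hours across five concentrations. GI50 = concentration required for 50% inhibition of growth. At the TGI there is no net growth.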

Experiments:
Assay in all cases: growth of human tumour cells (NCI), 48 h
HCT-15 colon = system: HCT-15 colon
NCI-H522 lung = system: NCI-H522 lung
BT-549 breast = system: BT-549 breast
OVCAR-3 ovarian = system: OVCAR-3 ovarian
SK-OV-3 ovarian = system: SK-OV-3 ovarian
T-47D breast = system: T-47D breast
U251 CNS = system: U251 CNS
UACC-257 melanoma = system: UACC-257 melanoma
SNB-75 CNS = system: SNB-75 CNS
K-562 leukemia = system: K-562 leukemia
MCF7 breast = system: MCF7 breast
IGROV1 ovarian = system: IGROV1 ovarian
SNB-19 CNS = system: SNB-19 CNS
786-0 renal = system: 786-0 renal
NCI-H23 lung = system: NCI-H23 lung
OVCAR-4 ovarian = system: OVCAR-4 ovarian
SW-620 colon = system: SW-620 colon
NCI-H226 lung = system: NCI-H226 lung
RPMI-8226 leukemia = system: RPMI-8226 leukemia
HOP-92 NSCLC = system: HOP-92 NSCLC
M14 melanoma = system: M14 melanoma
HOP-62 NSCLC = system: HOP-62 NSCLC
ACHN renal = system: ACHN renal
HCT-116 colon = system: HCT-116 colon
DU-145 prostate = system: DU-145 prostate
MALME-3M melanoma = system: MALME-3M melanoma
A549 NSCLC = system: A549 NSCLC
UACC-62 melanoma = system: UACC-62 melanoma
SF-295 CNS = system: SF-295 CNS
NCI/ADR-RES ovarian = system: NCI/ADR-RES ovarian
SN12C renal = system: SN12C renal
MOLT-4 leukemia = system: MOLT-4 leukemia
PC-3 prostate = system: PC-3 prostate
KM12 colon = system: KM12 colon
HCC-2998 colon = system: HCC-2998 colon
CCRF-CEM leukemia = system: CCRF-CEM leukemia
CAKI-1 renal = system: CAKI-1 renal
A498 renal = system: A498 renal
SK-MEL-28 melanoma = system: SK-MEL-28 melanoma
OVCAR-5 ovarian = system: OVCAR-5 ovarian
UO-31 renal = system: UO-31 renal
NCI-H460 lung = system: NCI-H460 lung
EKVX NSCLC = system: EKVX NSCLC
MDA-MB-435 = system: MDA-MB-435
COLO 205 colon = system: COLO 205 colon
SF-539 CNS = system: SF-539 CNS
SR leukemia = system: SR leukemia
MDA-N = system: MDA-N
OVCAR-8 ovarian = system: OVCAR-8 ovarian
MDA-MB-231 breast = system: MDA-MB-231 breast
RXF 393 renal = system: RXF 393 renal
SF-268 CNS = system: SF-268 CNS
LOX IMVI melanoma = system: LOX IMVI melanoma
HL-60(TB) leukemia = system: HL-60(TB) leukemia
TK-10 renal = system: TK-10 renal
HS 578T breast = system: HS 578T breast
SK-MEL-5 melanoma = system: SK-MEL-5 melanoma
SK-MEL-2 melanoma = system: SK-MEL-2 melanoma
HT29 colon = system: HT29 colon

Work on `N#Cc1ccsc1Nc1ccccc1[N+](=O)[O-]` yielded a TGI (HCT-15 colon) greater than 100 µM, a TGI (NCI-H522 lung) greater than 100 µM and a TGI (BT-549 breast) greater than 100 µM. The TGI (OVCAR-3 ovarian) was greater than 100 µM, the TGI (SK-OV-3 ovarian) was greater than 100 µM and the TGI (T-47D breast) was greater than 100 µM. The TGI (U251 CNS) was greater than 100 µM, the TGI (UACC-257 melanoma) was greater than 100 µM and the TGI (SNB-75 CNS) was greater than 100 µM. The TGI (K-562 leukemia) was greater than 100 µM, the TGI (MCF7 breast) was greater than 100 µM and the TGI (IGROV1 ovarian) was greater than 100 µM. For the same compound, the TGI (SNB-19 CNS) was greater than 100 µM, the TGI (786-0 renal) was greater than 100 µM and the TGI (NCI-H23 lung) was greater than 100 µM. For the same compound, the TGI (OVCAR-4 ovarian) was greater than 100 µM, the TGI (SW-620 colon) was greater than 100 µM and the TGI (NCI-H226 lung) was greater than 100 µM. For the same compound, the TGI (RPMI-8226 leukemia) was greater than 100 µM, the TGI (HOP-92 NSCLC) was greater than 100 µM and the TGI (M14 melanoma) was greater than 100 µM. The TGI (HOP-62 NSCLC) was greater than 100 µM, the TGI (ACHN renal) was greater than 100 µM and the TGI (HCT-116 colon) was greater than 100 µM. For the same compound, the TGI (DU-145 prostate) was greater than 100 µM, the TGI (MALME-3M melanoma) was greater than 100 µM and the TGI (A549 NSCLC) was greater than 100 µM. The TGI (UACC-62 melanoma) was greater than 100 µM, the TGI (SF-295 CNS) was greater than 100 µM and the TGI (NCI/ADR-RES ovarian) was greater than 100 µM. It also gave a TGI (SN12C renal) greater than 100 µM, a TGI (MOLT-4 leukemia) greater than 100 µM and a TGI (PC-3 prostate) greater than 100 µM. It also gave a TGI (KM12 colon) greater than 100 µM, a TGI (HCC-2998 colon) greater than 100 µM and a TGI (CCRF-CEM leukemia) greater than 100 µM. For the same compound, the TGI (CAKI-1 renal) was greater than 100 µM, the TGI (A498 renal) was greater than 100 µM and the TGI (SK-MEL-28 melanoma) was greater than 100 µM. For the same compound, the TGI (OVCAR-5 ovarian) was greater than 100 µM, the TGI (UO-31 renal) was greater than 100 µM and the TGI (NCI-H460 lung) was greater than 100 µM. For the same compound, the TGI (EKVX NSCLC) was greater than 100 µM, the TGI (MDA-MB-435) was greater than 100 µM and the TGI (COLO 205 colon) was greater than 100 µM. The TGI (SF-539 CNS) was greater than 100 µM, the TGI (SR leukemia) was greater than 100 µM and the TGI (MDA-N) was greater than 100 µM. For the same compound, the TGI (OVCAR-8 ovarian) was greater than 100 µM, the TGI (MDA-MB-231 breast) was greater than 100 µM and the TGI (RXF 393 renal) was greater than 100 µM. For the same compound, the TGI (SF-268 CNS) was greater than 100 µM.
`Cc1cc(C)c2c(=O)cc(-c3cccc(Cl)c3)[nH]c2n1` gave a TGI (HCT-15 colon) greater than 100 µM, a TGI (NCI-H522 lung) of 0.742 µM and a TGI (BT-549 breast) of 85.3 µM. The TGI (LOX IMVI melanoma) was greater than 34.2 µM, the TGI (SK-OV-3 ovarian) was greater than 100 µM and the TGI (UACC-257 melanoma) was greater than 94.1 µM. For the same compound, the TGI (SNB-75 CNS) was greater than 100 µM, the TGI (MCF7 breast) was greater than 100 µM and the TGI (IGROV1 ovarian) was greater than 100 µM. The TGI (SNB-19 CNS) was greater than 100 µM, the TGI (786-0 renal) was greater than 55.1 µM and the TGI (HL-60(TB) leukemia) was 2.15 µM. It also gave a TGI (NCI-H23 lung) greater than 100 µM, a TGI (OVCAR-4 ovarian) greater than 100 µM and a TGI (SW-620 colon) greater than 100 µM. For the same compound, the TGI (NCI-H226 lung) was greater than 100 µM, the TGI (TK-10 renal) was greater than 100 µM and the TGI (HOP-92 NSCLC) was greater than 100 µM. For the same compound, the TGI (M14 melanoma) was greater than 100 µM, the TGI (HOP-62 NSCLC) was greater than 100 µM and the TGI (ACHN renal) was greater than 100 µM. For the same compound, the TGI (HCT-116 colon) was greater than 23.1 µM, the TGI (DU-145 prostate) was greater than 100 µM and the TGI (MALME-3M melanoma) was greater than 100 µM. The TGI (A549 NSCLC) was greater than 100 µM, the TGI (UACC-62 melanoma) was greater than 100 µM and the TGI (SF-295 CNS) was 0.33 µM. For the same compound, the TGI (SN12C renal) was greater than 38.3 µM, the TGI (HS 578T breast) was greater than 100 µM and the TGI (MOLT-4 leukemia) was greater than 38.8 µM. The TGI (PC-3 prostate) was 0.0967 µM, the TGI (KM12 colon) was greater than 100 µM and the TGI (HCC-2998 colon) was greater than 100 µM. The TGI (CCRF-CEM leukemia) was greater than 100 µM, the GI50 (CAKI-1 renal) was 0.204 µM and the TGI (CAKI-1 renal) was greater than 100 µM. The TGI (A498 renal) was greater than 100 µM, the TGI (SK-MEL-28 melanoma) was greater than 100 µM and the TGI (UO-31 renal) was greater than 100 µM. The TGI (NCI-H460 lung) was greater than 100 µM, the TGI (EKVX NSCLC) was greater than 100 µM and the TGI (COLO 205 colon) was greater than 67.1 µM. The TGI (SF-539 CNS) was 0.464 µM, the TGI (SR leukemia) was greater than 100 µM and the TGI (MDA-N) was 0.0529 µM. It also gave a TGI (OVCAR-8 ovarian) greater than 100 µM, a TGI (MDA-MB-231 breast) of 8.09 µM and a TGI (RXF 393 renal) greater than 100 µM. The TGI (SF-268 CNS) was greater than 100 µM.
With `Cc1ccc(NC(=S)C#N)cc1Cl` the TGI (HCT-15 colon) was greater than 100 µM, the TGI (BT-549 breast) was greater than 100 µM and the TGI (LOX IMVI melanoma) was greater than 100 µM. It also gave a TGI (OVCAR-3 ovarian) of 53.8 µM, a TGI (SK-OV-3 ovarian) greater than 100 µM and a TGI (T-47D breast) greater than 100 µM. The TGI (U251 CNS) was greater than 100 µM, the TGI (UACC-257 melanoma) was greater than 100 µM and the TGI (SNB-75 CNS) was 75 µM. The TGI (K-562 leukemia) was greater than 100 µM, the TGI (MCF7 breast) was greater than 100 µM and the TGI (IGROV1 ovarian) was 48.4 µM. The TGI (786-0 renal) was greater than 100 µM, the TGI (SK-MEL-5 melanoma) was greater than 100 µM and the TGI (NCI-H23 lung) was greater than 100 µM. The TGI (SW-620 colon) was greater than 100 µM, the TGI (NCI-H226 lung) was greater than 100 µM and the TGI (TK-10 renal) was greater than 100 µM. The TGI (RPMI-8226 leukemia) was 56.2 µM, the TGI (HOP-92 NSCLC) was 62.8 µM and the TGI (M14 melanoma) was greater than 100 µM. The TGI (HOP-62 NSCLC) was greater than 100 µM, the TGI (ACHN renal) was greater than 100 µM and the TGI (SK-MEL-2 melanoma) was greater than 100 µM. It also gave a TGI (HCT-116 colon) greater than 100 µM, a TGI (DU-145 prostate) greater than 100 µM and a TGI (MALME-3M melanoma) greater than 100 µM. It also gave a TGI (A549 NSCLC) greater than 100 µM, a TGI (UACC-62 melanoma) greater than 100 µM and a TGI (SF-295 CNS) greater than 100 µM. It also gave a TGI (NCI/ADR-RES ovarian) greater than 100 µM, a TGI (SN12C renal) greater than 100 µM and a TGI (MOLT-4 leukemia) greater than 100 µM. The TGI (PC-3 prostate) was greater than 100 µM, the TGI (KM12 colon) was greater than 100 µM and the TGI (HCC-2998 colon) was 52.8 µM. The TGI (CCRF-CEM leukemia) was 80.3 µM, the TGI (CAKI-1 renal) was greater than 100 µM and the TGI (A498 renal) was 73.7 µM. The TGI (HT29 colon) was greater than 100 µM, the TGI (SK-MEL-28 melanoma) was greater than 100 µM and the TGI (OVCAR-5 ovarian) was 85.7 µM. It also gave a TGI (EKVX NSCLC) greater than 100 µM, a TGI (MDA-MB-435) greater than 100 µM and a TGI (COLO 205 colon) of 65.2 µM. For the same compound, the TGI (SF-539 CNS) was 70.5 µM, the TGI (SR leukemia) was greater than 100 µM and the TGI (MDA-N) was greater than 100 µM. It also gave a TGI (OVCAR-8 ovarian) greater than 100 µM, a TGI (MDA-MB-231 breast) greater than 100 µM and a TGI (RXF 393 renal) of 97.8 µM. The TGI (SF-268 CNS) was greater than 100 µM.
